Columns and labels:
[1] = Stability study on storage (25° C. ± 2° C./60% ± 5% RH) for 3 months
Protocol: The complete x-ray powder spectrum, which was recorded with a Rigaku multifelx 2.0 Kilowatt X-ray powder diffractometer model using copper radiation. The X-ray diffraction pattern was recorded by keeping the instrument parameters listed below:
i) X-ray: Cu/40 kv/30 mA, Diverging slit: 1°, Scattering slit: 1°, Receiving slit: 0.15 mm, Monochromator RS: 0.8 mm, Counter: Scintillation counters;
Scan mode: Continuous, Scan speed: 4.000 deg./min., Sampling width: 0.010°,
Scan axes: 2 theta vs CPS, Scan range: 4° to 40.0°, Theta offset: 0.000.
iv) (2R)-4-oxo-4-[3-(trifluoromethyl)-5,6-dihydro[1,2,4]-triazolo[4,3-a]pyrazin-7(8H)-yl]-1-(2,4,5-trifluorophenyl)butan-2-amine and its salts were analyzed for purity by analytical HPLC at λmax 210 nm using column YMC-C8, 250 mm×4.6 mm×4 mm or its equivalent on AGILENT 1100 series under the following conditions, Detector: UV absorption photometer Wave length: 210 nm Column temp.: 25° C. Flow rate: 1.0 mL/min. Injection Vol.: 10 μL Mobile Phase: 10 mM KH2PO4 (pH-6.8): Acetonitrile (55:45) (2R)-4-oxo-4-[3-(trifluoromethyl)-5,6-dihydro[1,2,4]-triazolo[4,3-a]pyrazin-7(8H)-yl]-1-(2,4,5-trifluorophenyl)butan-2-amine and its salts were analyzed for chiral purity by HPLC at λmax 268 nm using column Chiral-Cel OJ-H, 250 mm×4.6 mm×5μ or its equivalent on Shimadzu LCVP model under the following conditions, Detector: UV absorption photometer Wave length: 268 nm Column temp.: 35° C. Flow rate: 0.8 mL/min.

[2] = tested on: male C57BLKS/J mice; test: Oral glucose tolerance test (OGTT) in male C57 mice; assay type: in vivo; details: for % change in AUC glucose: single dose 10 mg/kg PO with glucose load 3 g/kg, male C57 mice fasted 18 h, AUC for 120 min, vs vehicle control; for efficacy compared with crystalline monohydrate phosphate salt (SP): acute oral glucose tolerance test in C57 mice, 10 mg/kg PO
Protocol: Eight to ten weeks old male C57BLKS/J mice obtained from Animal Research Facility of Zydus Research Centre were used. The mice were allowed ad libitum access to chow and water. Animals were on a 12-hour light, 12-hour dark cycle. Protocol for use of animals for conducting this study has been reviewed and approved by Institutional Animal Ethics Committee (IAEC).
Oral glucose tolerance test (OGTT) was performed on these animals. The mice were deprived of food for 18 h and then drug or vehicles were administered with a glucose load (3 g/kg) by oral route. Blood (200 μL) samples were collected at 0, 30, 60, 120 and 240 min. Serum glucose concentrations were determined using commercially available kits purchased from RFCL (New Delhi, India) using spectrophotometric assay. […] The area under the curve for 120 min was calculated, based on which the percentage inhibition was obtained for each treatment.

[3] = Stability of the novel salts versus free base (statement, no method given); assay type: physicochemical; details: compared with the free base; no conditions given
[4] = After 3 Month storage at 25° C. ± 2° C./60% ± 5% RH
[5] = After 3 Month storage at 25° C. ± 2° C./60% ± 5% RH, listed as besylate crystalline(II)
[6] = Initial, listed as besylate crystalline(II)
[7] = After 3 Month storage at 25° C. ± 2° C./60% ± 5% RH, listed as besylate amorphous
[8] = Initial, listed as besylate amorphous

Compound: Cl.N[C@@H](CC(=O)N1CCn2c(nnc2C(F)(F)F)C1)Cc1cc(F)c(F)cc1F [Hydrochloride crystalline, hydrochloride salt of (2R)-4-oxo-4-[3-(trifluoromethyl)-5,6-dihydro[1,2,4]triazolo[4,3-a]pyrazin-7(8H)-yl]-1-(2,4,5-trifluorophenyl)butan-2-amine]
- Description [1, 4]: white colored powder
- Polymorphism XRD [1, 4]: No Change
- Purity (By HPLC) [1, 4]: 99.91%
- Water (by KFR) [1, 4]: 4.01%
- Description ([1]; Initial): white colored powder
- Polymorphism XRD ([1]; Initial): Crystalline pattern
- Purity (By HPLC) ([1]; Initial): 99.82%
- Water (by KFR) ([1]; Initial): 3.54%

Compound: N[C@@H](CC(=O)N1CCn2c(nnc2C(F)(F)F)C1)Cc1cc(F)c(F)cc1F [SB, (2R)-4-oxo-4-[3-(trifluoromethyl)-5,6-dihydro[1,2,4]triazolo[4,3-a]pyrazin-7(8H)-yl]-1-(2,4,5-trifluorophenyl)butan-2-amine, reference compound]
- % change in AUC glucose [2]: −36.5 ± 1.6%

Compound: N[C@@H](CC(=O)N1CCn2c(nnc2C(F)(F)F)C1)Cc1cc(F)c(F)cc1F.O=S(=O)(O)c1ccccc1 [SBII, crystalline besylate salt(II) of (2R)-4-oxo-4-[3-(trifluoromethyl)-5,6-dihydro[1,2,4]triazolo[4,3-a]pyrazin-7(8H)-yl]-1-(2,4,5-trifluorophenyl)butan-2-amine]
- efficacy compared with crystalline monohydrate phosphate salt (SP) [2]: better than
- % change in AUC glucose ([2]; 10 mg/kg): −45.7 ± 1.5%
- Polymorphism XRD [1, 4]: No Change
- Description [1, 5]: Off white colored
- Purity (By HPLC) [1, 5]: 99.97%
- Water (by KFR) [1, 5]: 2.90%
- Description ([1]; Initial): white colored powder
- Polymorphism XRD [1, 6]: Crystalline pattern
- Purity (By HPLC) [1, 6]: 99.87%
- Water (by KFR) [1, 6]: 2.77%

Compound: N[C@@H](CC(=O)N1CCn2c(nnc2C(F)(F)F)C1)Cc1cc(F)c(F)cc1F.O=S(=O)(O)c1ccccc1 [SBa, amorphous besylate salt of (2R)-4-oxo-4-[3-(trifluoromethyl)-5,6-dihydro[1,2,4]triazolo[4,3-a]pyrazin-7(8H)-yl]-1-(2,4,5-trifluorophenyl)butan-2-amine]
- efficacy compared with crystalline monohydrate phosphate salt (SP) [2]: better than
- % change in AUC glucose ([2]; 10 mg/kg): −43.3 ± 1.6%
- Polymorphism XRD [1, 4]: No Change
- Description [1, 7]: white colored powder
- Purity (By HPLC) [1, 7]: 99.52%
- Water (by KFR) [1, 7]: 3.14%
- Description ([1]; Initial): white colored powder
- Polymorphism XRD [1, 8]: amorphous pattern
- Purity (By HPLC) [1, 8]: 99.41%
- Water (by KFR) [1, 8]: 1.01%

Compound: N[C@@H](CC(=O)N1CCn2c(nnc2C(F)(F)F)C1)Cc1cc(F)c(F)cc1F.O=P(O)(O)O [SP, (2R)-4-oxo-4-[3-(trifluoromethyl)-5,6-dihydro[1,2,4]triazolo[4,3-a]pyrazin-7(8H)-yl]-1-(2,4,5-trifluorophenyl)butan-2-amine phosphate salt, reference compound]
- % change in AUC glucose [2]: −31.9 ± 1.8%

Compound: N[C@@H](CC(=O)N1CCn2c(nnc2C(F)(F)F)C1)Cc1cc(F)c(F)cc1F.O=C(O)C(F)(F)F [TFA salt, Trifluoroacetic acid salt of (2R)-4-oxo-4-[3-(trifluoromethyl)-5,6-dihydro[1,2,4]triazolo[4,3-a]pyrazin-7(8H)-yl]-1-(2,4,5-trifluorophenyl)butan-2-amine]
- Description [1, 4]: white colored powder
- Polymorphism XRD [1, 4]: No Change
- Purity (By HPLC) [1, 4]: 97.5%
- Water (by KFR) [1, 4]: 3.45%
- Description ([1]; Initial): white colored powder
- Polymorphism XRD ([1]; Initial): Crystalline pattern
- Purity (By HPLC) ([1]; Initial): 97.89%
- Water (by KFR) ([1]; Initial): 2.77%

Compound: N[C@@H](CC(=O)N1CCn2c(nnc2C(F)(F)F)C1)Cc1cc(F)c(F)cc1F.O=C(O)CCCCC(=O)O [adipate, adipic acid salt of (2R)-4-oxo-4-[3-(trifluoromethyl)-5,6-dihydro[1,2,4]triazolo[4,3-a]pyrazin-7(8H)-yl]-1-(2,4,5-trifluorophenyl)butan-2-amine]
- stability of the salt [3]: very stable

Compound: (2R)-4-oxo-4-[3-(trifluoromethyl)-5,6-dihydro[1,2,4]triazolo[4,3-a]pyrazin-7(8H)-yl]-1-(2,4,5-trifluorophenyl)butan-2-amine gentisate [SG]
- efficacy compared with crystalline monohydrate phosphate salt (SP) [2]: better than
- % change in AUC glucose [2]: −39.4 ± 1.8%
- stability of the salt [3]: very stable

— patent US9108972B2, “Salts of DPP-IV inhibitor” (Cadila Healthcare Limited, priority 2011, dated 2015)
